30 compounds from patent US6372770B1, “Benzoxazoles” (Euro-Celtique, S.A., priority 1994, dated 2002) can be followed below.

SMILES strings stand for the structures. pIC50: −log10 of the molar value. A value given as a limit tells only on which side of the number the result lay.

The term pIC50 denotes −log10 of the IC50, conventionally taken in molar units. Usually melting point stands for the temperature, or range, at which the solid turns liquid.

Series [1] deals with T1, PDE IV.
T1 construct: PDE IV IC50; other: Type IV PDE isolated from bovine tracheal smooth muscle; rolipram run in the
The experiment in a line: Type IV PDE inhibition, hydrolysis of [3H]-cyclic AMP. The format is biochemical, bovine. The settings on record: Type IV PDE isolated from bovine tracheal smooth muscle; 0.2 μM cyclic AMP; read-out: PDE IV IC50. From the text:
The PDE IV inhibitory compounds of the present invention may be examined for their PDE IV inhibitory effects via the techniques set forth in the following examples, wherein the ability of the compounds to inhibit PDE IV isolated from bovine tracheal smooth muscle is set forth.
The Type IV PDE is isolated from bovine tracheal smooth muscle using a procedure similar to that previously described by Silver, P. J. et al., Eur. J. Pharmacol. 150:85,1988.(1). Briefly, smooth muscle from bovine trachea is minced and homogenized using a polytron in 10 volumes of an extraction buffer containing 10 mM Tris-acetate (pH 7.5), 2 mM magnesium chloride, 1 mM dithiothreitol and 2,000 units/ml of aprotinin. This and all subsequent procedures are performed at 0-4° C. The homogenate is sonicated and then centrifuged at 48,000×g for 30 minutes. The resulting supernatant is applied to a DEAE Trisacryl M column previously equilibrated with sodium acetate and dithiothreitol. After applications of the sample, the column is washed with sodium acetate/dithiothreitol, after whlich the different forms of PDE are eluted from the column using a linear Tris-HCl/NaCl gradient. Fractions containing Type IV PDE are collected, dialyzed and concentrated to 14% of the original volume. The concentrated fractions are diluted to 50% with ethylene glycol and stored at −20° C.
Enzyme activity is assessed by measuring the hydrolysis of [^3H]-cyclic AMP, as described by Thompson, W. J. et al., Adv. Cyclic Nucleotide Res. 10:69, 1979. The cyclic AMP concentration used in this assay is 0.2 μM, which approximates the Km value. Protein concentration is adjusted to ensure that no more than 15% of the available substrate is hydrolyzed during the incubation period.
(§1) All test compounds are dissolved in dimethyl sulfoxide (final concentration of 2.5%). This concentration of dimethyl sulfoxide inhibits enzyme activity by approximately 10%.

Series [2] addresses T2, PDE III (Homo sapiens, UniProt Q14432).
T2 construct: Fractions containing PDE III activity are pooled and dialyzed overnight; from tissue; host or cells: human platelets
The experiment in a line: Type III PDE inhibition, hydrolysis of [3H]-cyclic AMP. The format is biochemical. The conditions noted are these: Type III PDE isolated from human platelets; 0.2 μM cyclic AMP. How it is done: The Type III PDE is isolated from human platelets using a procedure similar to that previously described by Washer, R. E. et al., Biochem. Pharmacol., 35:787, 1986. Briefly, 1-2 units of platelets are suspended in an equal volume of buffer (20 mM Tris-HCl, pH 7.5, containing 2 mM magnesium acetate, 1 mM dithiothreitol, and 5 mM Na2EDTA). The proteinase inhibitor phenylmethyl-sulfonyl fluoride (PMSF) is also included in this buffer at a final concentration of 200 μM. The suspension is homogenized using a polytron and the homogenate centrifuged at 100,000×g for 60 minutes. This and all subsequent procedures are performed at 0-4° C. The supernatant is then filtered through four layers of gauze and applied to a DEAE-Trisacryl M column, previously equilibrated with buffer B (20 mM Tris-HCl, pH 7.5, containing 1 mM magnesium acetate, 1 mM dithiothreitol and 200 μM PMSF). After application of the sample, the column is washed with several bed volumes of buffer B, after which the different forms of PDE are eluted from the column using two successive linear NaCl gradients (0.05-0.15 M, 300 ml total; 0.15-0.40 M, 200 ml total). Five ml fractions are collected and assayed for cyclic AMP and cyclic GMP PDE activity. Fractions containing PDE III activity are pooled and dialyzed overnight against 4 L of buffer B. The dialyzed PDE III is then concentrated to 10% of the original volume, diluted to 50% with ethylene glycol monoethyl ether and stored at −20° C. PDE III can typically be retained for up to four weeks with little or no loss of activity.
Enzyme activity is assessed by measuring the hydrolysis of [^3H]-cyclic AMP, as described by Thompson, W. J. et al., Adv. Cyclic Nucleotide Res. 10:69, 1979. The cyclic AMP concentration used in this assay is 0.2 μM, which approximates to the Km value. Protein concentration is adjusted to ensure that no more than 15% of the available substrate is hydrolyzed during the incubation period.
as §1

T2 sequence (Q14432 whole entry): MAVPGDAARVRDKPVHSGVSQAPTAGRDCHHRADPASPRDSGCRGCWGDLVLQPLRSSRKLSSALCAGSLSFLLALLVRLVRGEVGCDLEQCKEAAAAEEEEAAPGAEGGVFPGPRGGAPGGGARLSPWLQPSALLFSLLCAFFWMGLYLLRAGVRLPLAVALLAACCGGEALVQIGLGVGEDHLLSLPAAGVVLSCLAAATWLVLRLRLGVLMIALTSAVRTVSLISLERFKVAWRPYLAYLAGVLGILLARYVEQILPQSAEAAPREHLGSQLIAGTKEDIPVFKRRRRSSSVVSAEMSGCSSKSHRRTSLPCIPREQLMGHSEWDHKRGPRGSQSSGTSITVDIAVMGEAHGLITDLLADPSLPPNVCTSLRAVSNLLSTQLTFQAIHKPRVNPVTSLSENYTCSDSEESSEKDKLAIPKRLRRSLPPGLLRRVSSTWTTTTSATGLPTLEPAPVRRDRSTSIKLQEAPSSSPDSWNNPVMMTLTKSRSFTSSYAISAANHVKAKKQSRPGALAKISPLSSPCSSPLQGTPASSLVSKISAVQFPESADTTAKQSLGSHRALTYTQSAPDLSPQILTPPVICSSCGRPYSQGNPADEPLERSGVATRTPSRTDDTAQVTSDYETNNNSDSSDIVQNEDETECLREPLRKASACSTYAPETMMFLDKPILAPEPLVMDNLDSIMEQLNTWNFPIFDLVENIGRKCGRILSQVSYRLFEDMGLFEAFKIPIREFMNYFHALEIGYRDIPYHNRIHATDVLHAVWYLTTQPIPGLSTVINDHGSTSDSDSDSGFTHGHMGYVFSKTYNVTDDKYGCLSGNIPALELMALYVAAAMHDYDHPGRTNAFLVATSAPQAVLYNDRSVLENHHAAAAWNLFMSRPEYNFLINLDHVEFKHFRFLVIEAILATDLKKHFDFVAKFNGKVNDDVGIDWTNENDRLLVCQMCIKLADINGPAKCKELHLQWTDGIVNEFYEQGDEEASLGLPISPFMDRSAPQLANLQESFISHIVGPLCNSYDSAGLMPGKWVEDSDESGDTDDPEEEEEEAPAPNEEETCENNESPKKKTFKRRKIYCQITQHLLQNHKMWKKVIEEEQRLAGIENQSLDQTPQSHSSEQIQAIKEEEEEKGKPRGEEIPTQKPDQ

In turn, `CC(=O)CCc1cc(Cl)cc2nc(-c3ccccc3Cl)oc12` [Example 9, 4-(5-Chloro-2-(2-chlorophenyl)benzoxazol-7-yl)butan-2-one] had a melting point of 109 to 110 °C. Also, the pIC50 in series [1] is 6.22. This compound also gave a pIC50 in series [2] of under 3.52.

Turning to `COc1ccc(Cc2nc3cccc(NC(=O)OCc4ccccc4)c3o2)cc1OC1CCCC1` [Example 18, 7-((Benzyloxycarbonyl)amino)-2-((3-Cyclopentyloxy-4-methoxy)-benzyl)-benzoxazole], the pIC50 in series [1] was 5.46; in series [2] it was under 3.52.

As for `COc1ccc(Cc2nc3cccc(Br)c3o2)cc1OC1CCCC1` [Example 19, 2-((3-Cyclopentyloxy-4-methoxy)benzyl)-7-bromo-benzoxazole], the negative logarithm of the IC50 (pIC50) in series [1] is 6.33; in series [2], 5.55.

In the case of `CC(C)c1cc(Cc2nc3c(O)cccc3o2)cc(C(C)C)c1O` [Example 20, 2-((3,5-Di-isopropyl-4-hydroxy)benzyl)-4-hydroxy-benzoxazole], the pIC50 in series [1] was 5.52; in series [2], 4.46.

For the compound `Cc1cc(Cc2nc3c(O)cccc3o2)cc(C)c1O` [Example 21, 2-((3,5-Dimethyl-4-hydroxy)benzyl)-4-hydroxybenzoxazole], the pIC50 in series [1] is 4.61; in series [2] it was 3.98.

Consider `CC(C)c1cc(Cc2nc3cccc(C#Cc4ccccn4)c3o2)cc(C(C)C)c1O` [Example 23], for which the figures for the pIC50 in series [1] and in series [2] were 6.59 and 3.82, respectively.

Turning to `COc1ccc(Cc2nc3cc(Cl)cc(CCO)c3o2)cc1OC1CCCC1` [Example 27, 2-(3-Cyclopentyloxy-4-methoxybenzyl)-5-chloro-7-(2-hydroxyethyl)Benzoxazole], the negative-log IC50 (pIC50) in series [1] is 6.19; in series [2], 4.42.

For the compound `COc1ccc(Cc2nc3cc(Cl)cc(CC(=O)O)c3o2)cc1OC1CCCC1` [Example 29, 2-(3-Cyclopentyloxy-4-methoxybenzyl)-5-chlorobenzoxazole-7-acetic Acid], the negative logarithm of the IC50 (pIC50) in series [1] is 4.95; in series [2], 4.00.

In the case of `COc1ccc(Cc2nc3cc(Cl)cc(CC(N)=O)c3o2)cc1OC1CCCC1` [Example 30, 2-(3-Cyclopentyloxy-4-methoxybenzyl)-5-chlorobenzoxazole-7-acetamide], the values for the pIC50 in series [1] and in series [2] were 5.53 and 3.89, respectively.

Take `Nc1cccc2nc(-c3cccc(Cl)c3)oc12` [Example 32]: the pIC50 is 4.49 in series [1] and under 3.52 in series [2].

For `Clc1cccc(-c2nc3cccc(NCc4ccccn4)c3o2)c1` [Example 33, 2-(3-chlorophenyl)-7-(2-pyridylmethylamino)benzoxazole], the figures for the pIC50 in series [1] and in series [2] were 5.04 and 3.76, respectively.

As for `COc1ccc(Cc2nc3cccc(NCc4cccnc4)c3o2)cc1OC1CCCC1` [Example 34, 2-(3-Cyclopentyloxy-4-methoxybenzyl)-7-(3-pyridylmethylamino)Benzoxazole], the pIC50 in series [1] is 6.00; in series [2] it was 4.48.

With `COc1ccc(Cc2nc3cccc(NCc4ncc[nH]4)c3o2)cc1OC1CCCC1` [Example 35, 2-(3-Cyclopentyloxy-4-methoxybenzyl)-7-(2-imidazolylmethylamino)Benzoxazole], the results for the negative-log IC50 (pIC50) in series [1] and in series [2] were 4.71 and under 3.52, respectively.

As for `COc1ccc(CNc2cccc3nc(-c4cccc(Cl)c4)oc23)cc1OC1CCCC1` [Example 36, 2-(3-Chlorophenyl)-7-(3-cyclopentyloxy-4-methoxy-benzylamino)Benzoxazole], the negative-log IC50 (pIC50) in series [1] was 4.80; in series [2], under 3.52.

As for `OCCCc1cc(Cl)cc2nc(Cc3ccccc3)oc12` [Example 37, 2-Benzyl-5-chloro-7-(3-hydroxy-1-propyl)Benzoxazole], the pIC50 is 4.41 in series [1] and 4.11 in series [2].

`C=CCc1cc(Cl)cc2nc(Cc3ccccc3Cl)oc12` [Example 38, 2-(2-Chlorobenzyl)-5-chloro-7-allylbenzoxazole]: the negative-log IC50 (pIC50) in series [1] is 5.27; in series [2] it was 3.97.

`COCCCc1cc(Cl)cc2nc(Cc3ccccc3Cl)oc12` [Example 39, 2-(2-Chlorobenzyl)-5-chloro-7-(3-methoxy-1-propyl)Benzoxazole]: the pIC50 was 4.82 in series [1] and 4.27 in series [2].

For the compound `CCCc1cc(Cl)cc2nc(Cc3ccc(OC)c(OC4CCCC4)c3)oc12` [Example 40, 2-(3-Cyclopentyloxy-4-methoxybenzyl)-5-chloro-7-propylbenzoxazole], the pIC50 in series [1] is 6.04; in series [2] it was under 3.52.

On to `OCCCc1cccc2nc(Cc3ccccc3Cl)oc12` [Example 41, 2-(2-Chlorobenzyl)-7-(3-hydroxy-1-propyl)Benzoxazole], for which the results for the negative logarithm of the IC50 (pIC50) in series [1] and in series [2] were 4.16 and 4.00, respectively.

Turning to `OCCCc1cc(Cl)cc2nc(Cc3cccc(Cl)c3)oc12` [Example 42, 3-[5-Chloro-2-(3-chlorobenzyl)benzoxazol-7-yl]propan-1-ol], the pIC50 is 4.80 in series [1] and 4.31 in series [2].

For `COc1ccc(CCc2nc3cc(Cl)ccc3o2)cc1OC` [Example 43, 5-Chloro-2-[2-(3,4-dimethoxyphenyl)ethyl]Benzoxazole], the pIC50 was 4.79 in series [1] and under 3.52 in series [2].

Turning to `COc1ccc(-c2nc3cc(Cl)ccc3o2)cc1OC` [Example 44, 5-Chloro-2-(3,4-dimethoxyphenyl)Benzoxazole], the figures for the pIC50 in series [1] and in series [2] were 4.71 and under 3.52, respectively.

As to `CC(C)(C)c1cc(Cc2nc3ccccc3o2)cc(C(C)(C)C)c1O` [Example 45, 2-[4-Hydroxy-3,5-di-t-butyl-benzyl]Benzoxazole], the pIC50 was 4.71 in series [1] and 4.14 in series [2].

As for `COC(=O)c1cccc2oc(Cc3cc(C(C)(C)C)c(O)c(C(C)(C)C)c3)nc12` [Example 46, 2-[4-Hydroxy-3,5-di-t-butyl-benzyl]-4-carbomethoxybenzoxazole], the negative logarithm of the IC50 (pIC50) is 4.67 in series [1] and 3.15 in series [2].

As for `CC(C)(C)c1cc(CCc2nc3ccccc3o2)cc(C(C)(C)C)c1O` [Example 47, 2-[2-(4-Hydroxy-3,5-di-t-butyl-phenyl)]Ethylbenzoxazole], the pIC50 is 4.04 in series [1] and under 3.52 in series [2].

`NC(=O)CCc1cc(Cl)cc2nc(Cc3ccccc3Cl)oc12` [Example 55(a), 5-Chloro-2-(2-chlorobenzyl)-benzoxazole-7-propanamide] showed a melting point of 181 to 183 °C.

For `CC(=O)Oc1c(C(C)(C)C)cc(CCc2nc3cc(Cl)cc(CCc4ccccn4)c3o2)cc1C(C)(C)C` [Example 58(b), 2-[2-(4-acetoxy-3,5-di-t-butyl-phenyl)ethyl]-5-chloro-7-[2-(2-pyridyl)ethyl]-benzoxazole], the melting point was in the range of 134 to 135 °C.

In turn, `Clc1cc(C#Cc2nccs2)c2oc(Cc3ccccc3Cl)nc2c1` [Example 59(a), 5-chloro-2-(2-chlorobenzyl)-7-[2-(2-thiazolyl)ethynyl]-benzoxazole] returned a melting point of 149 to 151 °C.

`OCCCCCc1cc(Cl)cc2nc(Cc3ccccc3Cl)oc12` [Example 60(b), 5-chloro-2-(2-chlorobenzyl)-7-(5-hydroxypentyl)-benzoxazole] had a melting point of 72 to 79 °C.

Regarding `COc1ccc(Cc2nc3cccc(CCCO)c3o2)cc1OC` [Example 61, 2-(3,4-dimethoxybenzyl)-7-(3-hydroxy-propyl)-benzoxazole], the melting point was in the range of 95 to 97 °C.
